Residue numbers refer to the chain shown, from its start. Entries after “also recorded” stand apart in the source; their conditions may differ.
Experiments:
human PNPO wild type = target: T1, human PNPO wild type (Homo sapiens, UniProt Q9NVS9); set-up: a main form corresponding to the entire protein; made in house; host or cells: E. coli BL21(DE3); method as in Barile et al. ([2020]); settings: DSF, ref Barile et al. ([2020]), read-out: PLP binding KD^DSF; cited from earlier work
T1 sequence (Q9NVS9 1-261): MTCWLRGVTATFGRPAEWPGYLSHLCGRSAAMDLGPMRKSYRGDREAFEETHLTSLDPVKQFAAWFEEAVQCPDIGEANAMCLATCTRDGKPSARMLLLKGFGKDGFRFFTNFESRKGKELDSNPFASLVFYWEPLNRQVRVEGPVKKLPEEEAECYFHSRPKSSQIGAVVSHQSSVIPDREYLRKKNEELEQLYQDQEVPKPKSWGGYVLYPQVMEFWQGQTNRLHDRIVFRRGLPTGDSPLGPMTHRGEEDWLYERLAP

[1] = target: human PNPO R161C variant (holo-enzyme); set-up: method as in Barile et al. ([2021]); settings: FMN fluorescence changes, ref Barile et al. ([2021]), read-out: PLP binding KD^FLUO; cited from earlier work
[2] = target: T2, apo-PNPO F48A/E50L/R161C/R258L (Homo sapiens, UniProt Q9NVS9, E50L/F48A/R161C/R258L); test: PLP binding by intrinsic fluorescence, apo F48A/E50L/R161C/R258L; settings: excitation 280 nm, 100 nM enzyme
T2 construct: together with a main form corresponding to the entire protein (estimated molecular mass of 31.0 ± 0.7 kDa); made in house; host or cells: E. coli BL21(DE3)
T2 sequence (Q9NVS9 1-261 F48A/E50L/R161C/R258L): T1 sequence (Q9NVS9 1-261) with F48A, E50L, R161C, R258L
From the text: PLP binding to PNPO can be detected and quantitatively measured using differential scanning fluorimetry (DSF) and also by measuring FMN fluorescence changes. We had previously attributed DSF changes to PLP binding at the active site, while FMN fluorescence changes were attributed to PLP binding at the allosteric site (Barile et al., [2019], [2020]). Previous experiments carried out with the PNPO R161C variant, affecting a residue that is essential for substrate binding and catalysis (and therefore also for PLP binding at the active site), confirms that DSF measurements only report PLP binding at the active site (Barile et al., [2021]; Table 1). […] We expected to observe no FMN fluorescence changes upon titration of the variants with PLP. However, this was not the case, and the dissociation constant values obtained by observing the FMN fluorescence emission were only up to threefold larger in the variants with respect to wild type PNPO (Figure 3). […] To check the second possibility, we measured intrinsic fluorescence changes of wild type and variant apo‐forms (i.e., without FMN) upon PLP titration. […]
Analyses of PLP binding, based on FMN fluorescence increase observed upon binding of PLP to PNPO, were performed as described in Barile et al. ([2020]). […] Emission spectra were recorded from […], with excitation and emission slits set at 3 and 5 nm, respectively. […]

Cc1ncc(COP(=O)(O)O)c(C=O)c1O [PLP, pyridoxal 5′‐phosphate]
Kd (human PNPO wild type): 3200 ± 200 nM
Kd [1]: 530 ± 80 nM
Apo-enzyme PLP binding KD^FLUO [2]: no variation in the emitted fluorescence was observed; also recorded: No binding
